{
  "source": "patent US11524003B2",
  "about": "“Alpha-amino esters of hydroxypropylthiazolidine carboxamide derivative and salt form, crystal polymorph thereof” (ObsEva S.A., priority 2016, dated 2022)",
  "tested_on": "PGF2α-induced myometrial contractility",
  "experiment": "PGF2α-induced contractions of human myometrial biopsies (myograph)",
  "details": "6, 60, 600, 6000 nM",
  "experimental": "Experiments were performed using a DMT Myograph 800 MS (ADINSTRUMENTS™) in oxygenated Kreb's solution with ADI Powerlab software. Once regular contractions had been established for at least 20 minutes, baseline measurements of spontaneous contraction frequency were recorded. The measurement of spontaneous contraction frequency is represented on the x-axis as “Spon.” A DMSO control or compound II was then added to each myometrial sample at the indicated concentrations and the effects of control or compound II on contractile frequency were measured over the ensuing 10-minute period. This time point is represented on the x-axis as “Compound II.” The effects of compound II on contractile frequency in the presence of PGF2α were subsequently measured by challenging the myometrial tissue samples with increasing concentrations of PGF2α (1 nM, 10 nM, and 100 nM) at sequential 10-minute intervals. […] Once regular contractions had been established for at least 20 minutes, baseline measurements of spontaneous work done per contraction were recorded. The measurement of spontaneous work done per contraction is represented on the x-axis as “Spon.” A DMSO control or compound II was then added to each myometrial sample at the indicated concentrations and the effects of control or compound II on work done per contraction were measured over the ensuing 10-minute period. […]",
  "data": [
    {"smiles": "O=C(N[C@@H](CCO)c1ccc(F)cc1)[C@@H]1SCCN1S(=O)(=O)c1ccc(-c2ccccc2)cc1", "note": "[Compound II, 3-([1,1′-biphenyl]-4-ylsulfonyl)-N-[1-(4-fluorophenyl)-3-hydroxypropyl]-1,3-thiazolidine-2-carboxamide]", "values": [
      {"measurement": "Effect on PGF2α-induced myometrial contractility", "value": "suppressing both PGF2α-induced and OT-induced myometrial contractility in a dose-dependent fashion"}
    ]}
  ]
}
